Test results published in US20050124021A1 (priority 2000, published 2005).
Entries after “also recorded” stand apart in the source; their conditions may differ.

Legend:
[1] = biological target: recombinant MshB (Rv1170) (Mycobacterium tuberculosis, UniProt P9WJN3); type: biochemical, M. tuberculosis
[2] = system: M. smegmatis mutant 49; type: cell-based
[3] = biological target: T1, M. tuberculosis MshB (Rv1170) (Mycobacterium tuberculosis, UniProt P9WJN3); type: biochemical; conditions: for Deacetylase Specific Activity: pH 7.4
[4] = system: M. smegmatis strain I64
[5] = system: M. smegmatis strain 49; conditions: read-out: H2O2 IC50; cited from earlier work
[6] = system: M. smegmatis strain 49
[7] = system: M. smegmatis mc^2155; conditions: read-out: H2O2 IC50
[8] = system: M. smegmatis strain 49::H37Rv A18; conditions: read-out: H2O2 IC50; cited from earlier work
[9] = system: M. smegmatis strain TN3
[10] = biological target: T1, M. tuberculosis MshB (Rv1170); type: biochemical
[11] = biological target: T2, His-tagged MshB (Mycobacterium tuberculosis, UniProt P9WJN3); type: biochemical, M. tuberculosis
[12] = biological target: T2, His-tagged MshB; type: biochemical, M. tuberculosis; remark: listed apart in the source
[13] = system: M. smegmatis mc^2155; type: cell-based
[14] = system: M. smegmatis chemical mutant 164; type: cell-based
[15] = system: M. smegmatis mutant TN3; type: cell-based

T2 sequence (P9WJN3 whole entry, looked up): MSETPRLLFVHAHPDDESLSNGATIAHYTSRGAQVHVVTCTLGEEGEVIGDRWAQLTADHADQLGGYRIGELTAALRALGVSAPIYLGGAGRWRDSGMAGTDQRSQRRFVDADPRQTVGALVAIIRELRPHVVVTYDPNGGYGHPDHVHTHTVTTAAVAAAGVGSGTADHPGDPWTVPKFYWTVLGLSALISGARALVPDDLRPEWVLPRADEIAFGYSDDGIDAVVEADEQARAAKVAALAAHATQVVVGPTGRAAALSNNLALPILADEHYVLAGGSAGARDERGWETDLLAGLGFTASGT
T1 sequence (P9WJN3 whole entry, looked up): as above
Sequence of recombinant MshB (Rv1170) (P9WJN3 whole entry, looked up): as above

c1cnc2c(c1)ccc1cccnc12 [1,10-phenanthroline]
Inhibition of the deacetylase reaction [1]: substantially inhibited; also recorded: completely inhibited

CC(=O)N[C@H]1C(O)O[C@H](CO)[C@@H](O)[C@@H]1O (stereo partly shown) [GlcNAc, N-acetylglucosamine]
MSH found in cells [2]: No significant MSH
Fold less active than GlcNAc-Ins as deacetylase substrate [3]: 44 fold
Relative Rate (deacetylase reaction) [3]: 0.023
Deacetylase Specific Activity [3]: 1.6 ± 1 nmol/min/mg

OO [H2O2, hydrogen peroxide]
Sensitivity to peroxide versus the parent strain [4]: three-fold more sensitive
IC50 ([4]; read-out: H2O2 IC50): 3500 µM
IC50 [5]: 1000 µM
Fold more sensitive to H2O2 than the parent strain [6]: 12 fold
IC50 [7]: 12000 µM
IC50 [8]: 1800 µM
Fold more sensitive to H2O2 than the parent strain [9]: > 20 fold
IC50 ([9]; read-out: H2O2 IC50): 500 µM

CC(=O)N[C@@H](CS)C(=O)N[C@H]1[C@@H](OC2[C@H](O)[C@H](O)C(O)[C@H](O)[C@H]2O)O[C@H](CO)[C@@H](O)[C@@H]1O (stereo partly drawn) [MSH, 1-D-myo-inosityl-2-(N-acetylcysteinyl)amido-2-deoxy-α-D-glucopyranoside]
Relative Rate (amidase reaction) [10]: 0.0043
Amidase Specific Activity ([10]; pH 7.4): 0.3 ± 0.1 nmol/min/mg
Concentration that completely inhibits the amidase activity [11]: over 1 mM
Inhibition of the amidase activity [11]: effective inhibitor
Relative Rate (deacetylase reaction) [3]: <0.00036
Substrate quality for the deacetylase activity [3]: not substrates
Deacetylase Specific Activity [3]: <0.025 ± 0.012 nmol/min/mg
Inhibition of the deacetylase activity [12]: effective inhibitor

N[C@H]1C(O)O[C@H](CO)[C@@H](O)[C@@H]1O (stereo partly shown) [glucosamine]
MSH found in cells [2]: No significant MSH

N[C@@H](CCC(=O)N[C@@H](CS)C(=O)NCC(=O)O)C(=O)O [glutathione]
Inhibition of the amidase activity [11]: lack of inhibition
Inhibition of the deacetylase activity [12]: lack of inhibition

O[C@H]1[C@H](O)[C@@H](O)[C@H](O)[C@@H](O)[C@H]1O [inositol]
MSH found in cells [2]: No significant MSH

superoxide
Killing by superoxide [13]: no significant killing
Killing by superoxide [14]: intermediate level of killing
Killed by superoxide [15]: > 90%
